Tests used:
Format in all cases: functional
[1] = target: Leukotriene B4 receptor 1 (Homo sapiens) (UniProt Q15722); experiment: Antagonistic activity against Leukotriene B4 receptor by using [3H]LTB4 as a radioligand at a concentration of 10e-5 M
[2] = target: Leukotriene B4 receptor 1 (Homo sapiens) (UniProt Q15722); experiment: Antagonistic activity against Leukotriene B4 receptor by using [3H]LTB4 as a radioligand at a concentration of 10e-6 M
[3] = target: Leukotriene B4 receptor 1 (Homo sapiens) (UniProt Q15722); experiment: Antagonistic activity against Leukotriene B4 receptor by using [3H]LTB4 as a radioligand at a concentration of 10e-7 M

Sequence of Leukotriene B4 receptor 1 (Homo sapiens) (Q15722 whole entry): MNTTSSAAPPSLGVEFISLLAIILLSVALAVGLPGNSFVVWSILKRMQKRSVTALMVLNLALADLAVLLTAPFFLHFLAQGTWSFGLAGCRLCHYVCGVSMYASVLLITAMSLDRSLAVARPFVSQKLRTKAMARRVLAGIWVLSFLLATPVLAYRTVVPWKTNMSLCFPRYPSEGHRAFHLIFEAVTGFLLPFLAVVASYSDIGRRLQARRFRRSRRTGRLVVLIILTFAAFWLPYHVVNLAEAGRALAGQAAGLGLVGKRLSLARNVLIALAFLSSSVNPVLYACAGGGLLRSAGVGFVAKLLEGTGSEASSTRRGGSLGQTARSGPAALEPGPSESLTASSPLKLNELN

Row | SMILES | inhibition [1] | inhibition [2] | inhibition [3]
1 | CCCCCCCCCCOc1ccc(C(=O)c2ccc(C(=O)O)cc2)cc1CC(=O)O | 76% | 35% | –
2 | CCCCCCCCCCOc1ccc(C(=O)c2cccc([N+](=O)[O-])c2)cc1CCC(=O)O | 13% | 0% | –
3 | O=C(O)CCc1cc(NC(=O)c2cccc(C(=O)O)c2)ccc1OCCCCCCc1ccccc1 | 98% | 73% | –
4 | O=C(O)CCc1cc(C(=O)c2cccc(C(=O)O)c2)ccc1OCCCCCCc1ccccc1 | 100% | 85% | –
5 | CCCCCCCCCCOc1ccc(C(O)c2cccc(C(=O)O)c2)cc1CCC(=O)O (stereo unspecified) | 91% | 55% | –
6 | CCCCCCCCCCOc1ccc(C(=O)c2ccccc2)cc1CC(=O)O | 24% | 1% | –
7 | CCCCCCCCCCOc1ccc(C(=O)c2cccc(C(=O)OCC)c2)cc1Cc1nnn[nH]1 | 0% | 14% | –
8 | CCCCCCCCCCOc1ccc(C(=O)c2cccc(C(=O)O)c2)cc1CCCC(=O)O | 89% | 52% | –
9 | O=C(O)CCc1cc([S+]([O-])c2cccc(C(=O)O)c2)ccc1OCCCCCCc1ccccc1 (stereo unspecified) | 79% | 71% | 37%
10 | CCCCCCCCCCOc1ccc(C(=O)c2cccc(C#N)c2)cc1CC#N | 3% | 0% | –
11 | CCCCCCCCCCOc1ccc(C(OCC)c2cccc(C(=O)O)c2)cc1CCC(=O)O (stereo unspecified) | 78% | 26% | –
12 | O=C(O)CCc1cc(/C(=N\O)c2cccc(C(=O)O)c2)ccc1OCCCCCCc1ccccc1 | 96% | 84% | 30%
13 | CCCCCCCCCCOc1ccc(Cc2cccc(C(=O)O)c2)cc1CCC(=O)O | 88% | 41% | –
14 | O=C(O)CCc1cccc(NC(=O)c2cccc(C(=O)O)c2)c1OCCCCCCc1ccccc1 | 24% | 0% | –
15 | CCCCCCCCCCOc1ccc(C(O)c2cccc(C(=O)O)c2)cc1 (stereo unspecified) | 0% | 3% | –
16 | CCCCCCCCCCOc1ccc(Oc2cccc(C(=O)O)c2)cc1CCC(=O)O | 88% | 41% | –
17 | CCCCCCCCCCOc1ccc(C(=O)c2cccc(C(=O)OCC)c2)cc1CC(=O)OCC | 0% | 0% | –
18 | O=C(O)CCc1cc(S(=O)(=O)c2cccc(C(=O)O)c2)ccc1OCCCCCCc1ccccc1 | 100% | 79% | 24%
19 | CCCCCCCCCCOc1ccc(C(=O)c2ccccc2C(=O)O)cc1CC(=O)O | 60% | 7% | –
20 | CCCCCCCCCCOc1ccc(C(=O)c2cccc(-c3nn[nH]n3)c2)cc1CCC(=O)OCC | 0% | 1% | –
21 | CCCCCCCCCCOc1ccc(C(=O)c2cccc(C(=O)O)c2)c(O)c1 | 19% | 13% | –

Row | SMILES | inhibition [1] | inhibition [2] | inhibition [3]
22 | O=C(O)CCc1cc(Sc2cccc(C(=O)O)c2)ccc1OCCCCCCc1ccccc1 | 102% | 67% | 29%
23 | CCCCCCCCCCOc1ccc(C(=O)c2cccc(C(=O)O)c2)cc1CCc1nnn[nH]1 | 96% | 55% | –
24 | CCCCCCCCCCOc1ccc(C(=O)c2cccc(C(=O)O)c2)cc1CCC(=O)O | 95% | 60% | –
25 | CCCCCCCCCCOc1ccc(C(=O)c2cccc(S(=O)(=O)NC)c2)cc1CCC(=O)O | 22% | 9% | –
26 | CCCCCCCCCCOc1ccc(C(=O)c2cccc(C(=O)NC)c2)cc1CCC(=O)NC | 0% | 0% | –
27 | CCCCCCCCCCOc1ccc(C(=O)c2cccc(C(=O)O)c2)c(CC(=O)O)c1 | 74% | 23% | –
28 | CCCCCCCCCCOc1ccc(C(=O)c2cccc(Cc3nnn[nH]3)c2)cc1CCC(=O)O | 99% | 68% | –
29 | CCCCCCCCCCOc1ccc(C(=O)c2cccc(-c3nn[nH]n3)c2)cc1CC(=O)O | 93% | 28% | –
30 | CCCCCCCCCCOc1ccc(C(=O)c2ccccc2CC(=O)O)cc1CCC(=O)O | 100% | 79% | –
31 | CCCCCCCCCCOc1ccc(C(=O)c2cccc(C(=O)O)c2)cc1C(=O)O | 76% | 21% | –
32 | CCCCCCCCCCOc1ccc(C(=O)c2cccc(C(=O)O)c2)cc1Cc1nnn[nH]1 | 83% | 34% | –
33 | CCCCCCCCCCOc1ccc(C(=O)CCCC(=O)O)cc1CC(=O)O | 39% | 2% | –
34 | C=C(c1cccc(C(=O)O)c1)c1ccc(OCCCCCCCCCC)c(CCC(=O)O)c1 | 71% | 39% | –
35 | CCCCCCCCCCOc1ccc(C(=O)c2cccc(-c3nnn[nH]3)c2)cc1Cc1nnn[nH]1 | 81% | 20% | –
36 | CCCCCCCCCCOc1ccc(C(=O)c2cccc(-c3nn[nH]n3)c2)cc1CCC(=O)O | 98% | 71% | –
37 | CCCCCCCCCCOc1ccc(/C(=N\O)c2cccc(C(=O)O)c2)cc1CCC(=O)O | 92% | 61% | –
38 | CCCCCCCCCCOc1ccc(C(O)c2cccc(C(=O)O)c2)cc1CC(=O)O (stereo unspecified) | 75% | 28% | –
39 | CCCCCCCCCCOc1ccc(C(=O)c2cccc(C(=O)O)c2)cc1CC(=O)O | 73% | 27% | –
40 | CCCCCCCCCCOc1ccc(C(=O)Cc2ccccc2C(=O)O)cc1CCC(=O)O | 95% | 53% | –
41 | CCCCCCCCCCOc1ccc(C(O)c2ccc(C(=O)O)cc2)cc1CC(=O)O (stereo unspecified) | 59% | 15% | –

Reference: ChEMBL document CHEMBL1124983, “Benzophenone dicarboxylic acid antagonists of leukotriene B4. 1. Structure-activity relationships of the benzophenone nucleus” (J Med Chem, 1990)
